Data: patent publication US20230165817A1, “DOPAMINERGIC MIMETICS” (TDELTAS LIMITED, priority 2004, published 2023)

Key:
[1] = tested on: electrical power of four rat brain areas (frontal cortex, hippocampus, striatum, reticular formation); details: literature (Dimpfel et al., 1987; Dimpfel, 2003); cited from earlier work
[2] = Plasma determination of (R)-3-hydroxybutyrate after intraperitoneal injection; assay type: in vivo, Sprague-Dawley rats; details: rat
Method: (§1) One hundred and seventy-one male Sprague-Dawley rats (weight range 200-250 g) housed on a standard […] were used. Animals had free access to a standard pelleted rat diet and tap water at all times. KTX 0101 (sodium (R)-3-hydroxybuytrate; 100, 300, 600 and 1000 mg/kg body weight) supplied by Sigma (H6501, Lot 111K2618) was administered by intraperitoneal injection. Control animals received the appropriate 0.9% saline vehicle via the same route. Animals were killed by CO2 asphyxiation 0 h, 0.5 h, 1.0 h or 2.0 h after dosing and a terminal blood sample was collected by cardiac puncture. Blood was taken in lithium heparinised tubes and kept on ice prior to centrifugation to yield the plasma samples for analysis.
Commercial clinical assay kits for the determination of D-β-hydroxybutyrate were obtained from Randox Laboratories (Antrim, UK). The kit quantified NADH via the activity of β-hydroxybutyrate dehydrogenase measured as an increase in OD340 nm. An alkaline pH is necessary to drive the reaction equilibrium towards the production of NADH and acetoacetate.
This spectrophotometric assay was modified for application to a 96 well microplate format. The reaction rate was then determined from the increase in OD340 nm over a 1 minute time course, after allowing a necessary period for the reaction rate to settle.

[3] = Plasma determination of acetoacetate after intraperitoneal injection; assay type: in vivo, Sprague-Dawley rats; details: 30 min after dosing, rat
Method: as §1
The assay developed for the determination of acetoacetate was based on previously published clinical assays (Li et al, 1980; McMurray et al, 1984). A different assay buffer was prepared (0.1M Na2PO4 adjusted to pH 7.0 with HCl) in order to shift the equilibrium of the reaction to production of β hydroxybutyrate and NAD+. Other modifications included the additional use of sodium oxalate at a final assay concentration of 20 mM to inhibit lactate dehydrogenase (LDH) present in the plasma samples. […]
Acetoacetate was measured via the reduction in OD340 nm over a 1 minute period after allowing for the reaction rate to settle.

[4] = tested on: electrical power of four rat brain areas (frontal cortex, hippocampus, striatum, reticular formation); experiment: EEG measurements (Tele-Stereo-EEG) in freely-moving rats after single intraperitoneal injection; assay type: in vivo, Fisher rats
From the text: Analysis of brain field potentials (“Tele-Stereo-EEG”) has been proven to be a very sensitive tool for the characterization of drug effects on the central nervous system (Dimpfel et al., 1986). After administration of a centrally active drug, quantitative changes in the brain field potentials can be considered as a characteristic fingerprint of that particular drug. “Fingerprints” of more than 100 compounds have been obtained including 8 established drug categories, e.g. stimulants, sedatives, hallucinogenics, tranquilizers, analgesics, antidepressants, neuroleptics, and narcotics. Different dosages of the same drug cause quantitative changes in electrical power. […] Direct comparison with specific reference drugs, or by discriminant analysis with reference to an extensive fingerprint database, permits the detection of any possible similarities with established drugs. In general, “fingerprints” show prominent differences for drugs prescribed for different indications and are similar for drugs with similar indication (Dimpfel, 2003). Furthermore, the pattern of EEG changes in the rat is a useful tool in predicting possible changes in the EEG power spectrum in humans.
Adult Fisher rats (4-6 month of age and day-night converted, bodyweight approximately 400 g) were implanted with 4 bipolar concentric steel electrodes using a stereotaxic surgical procedure. According to the coordinates of Paxinos and Watson (1982), all four electrodes were placed 3 mm lateral within the left hemisphere. Anterior coordinates were 12.2, 5.7, 9.7 and 3.7 mm for frontal cortex, hippocampus, striatum and reticular formation, respectively. A baseplate carrying the electrodes and a 5-pin-plug was fixed to the skull by dental cement attached to 3 steel screws fixed into the skull. Animals were given two weeks for recovery from the surgical procedure.
EEG signals were recorded from frontal cortex, hippocampus, striatum and reticular formation and were amplified and processed as described by Dimpfel et al. (1986). After automatic artefact rejection, signals were collected in sweeps of 4 s duration and submitted to Fast Fourier transformation. The resulting electrical power spectra were divided into 6 frequency ranges: delta (0.8-4.5 Hz); theta (4.75-6.75 Hz); alpha1 (7.00-9.50 Hz); alpha2 (9.75-12.50 Hz); beta (12.75-18.50 Hz); beta2 (18.75-35.00 Hz). […] In an off-line procedure spectra were averaged to give 15 minute or longer periods for further statistical analysis.
Four doses of KTX 0101 (sodium (R)-3-hydroxybuytrate: 100, 300, 600 and 1000 mg/kg body weight) (supplied by Solvias AG, CH 4002 Basel, Switzerland, batch No: SO-1058.047.1.120) and a vehicle control (0.9% w/v saline) were administered intraperitoneally to a group of 12 animals using a crossover design with at least 3 drug holidays in between the applications. After a pre-drug period of 45 minutes for baseline recording, drug effects were observed continuously for 300 minutes. Changes of electrical power (μV2/W) are expressed as percentage of the 45 minute pre-drug values. Multivariate statistics were calculated according to Ahrens and Läuter (1974).

Compound: Oc1cc2c(cc1O)C(c1ccccc1)CNCC2 (stereo not shown) [SKF 38393]
- EEG frequency changes of drugs enhancing dopaminergic function [1]: decrease delta, theta and alpha2 frequencies

Compound: C[C@@H](O)CC(=O)[O-].[Na+] [KTX 0101, sodium (R)-3-hydroxybuytrate]
- Plasma concentration of (R)-3-hydroxybutyrate ([2]; 100, 300, 600 and 1000 mg/kg ip): clear dose-dependent increases
- Time at which plasma (R)-3-hydroxybutyrate had returned to control values ([2]; 100-1000 mg/kg ip, after injection): ≤ 1 h
- Time of highest elevations in plasma (R)-3-hydroxybutyrate ([2]; 100-1000 mg/kg ip, first sample): 30 min
- Plasma concentration of acetoacetate ([3]; 600 mg/kg ip): significantly increased
- Plasma concentration of acetoacetate ([3]; 1000 mg/kg ip): significantly increased
- Duration of EEG effects ([4]; 100 mg/kg body weight ip, rat): 1 to 2 h
- Statistical significance of EEG changes ([4]; 100 mg/kg body weight ip, rat): not statistically significant
- Changes in EEG power spectrum (frequency changes) ([4]; 100 mg/kg body weight ip, rat, vs pre-drug values): decrease of electrical power mainly with regard to alpha2
- Duration of EEG pattern of changes ([4]; 300 mg/kg ip, rat): 2 h
- Statistical significance of EEG changes ([4]; 300 mg/kg ip, rat): only statistically significant in the reticular formation
- Changes in EEG power spectrum (frequency changes) ([4]; 300 mg/kg ip, rat, vs pre-drug values): decreases in alpha2 power throughout all brain regions
- Duration of EEG effects ([4]; 600 mg/kg ip, rat, brain regions except reticular formation): ~2 h
- Statistical significance of EEG changes ([4]; 600 mg/kg ip, rat, including first hour within striatum and all 24 variables): statistically significant
- Duration of decreases in EEG power in the reticular formation ([4]; 600 mg/kg ip, rat, reticular formation): persisted throughout the third hour
- Changes in EEG power spectrum (frequency changes) ([4]; 1000 mg/kg ip, rat): identical pattern of change, but with more prominent decreases of power
- Duration of decreases of EEG power ([4]; 1000 mg/kg ip, rat): lasting into the third hour
- Statistical significance of EEG changes ([4]; 1000 mg/kg ip, rat, even for the 4th hour within the reticular formation): statistically significant
- Duration of decreases of EEG power in the reticular formation ([4]; 1000 mg/kg ip, rat, reticular formation, total experimental time): 5 h
- Similarity of qEEG fingerprint to drug classes by discriminant analysis ([4]; 24 variables, 20th to 50th min after single-dose application, rat): close proximity to the dopamine reuptake inhibitor, cocaine and the dopamine releasing agent, d-amphetamine
- Period of greatest changes in EEG patterns ([4]; after ip injection, rat): 5 to 65 min
- EEG changes, summary over dose range ([4]; dose range 300 to 1000 mg/kg ip, rat): clear, dose- and time-dependent statistically significant changes
- Specific EEG frequencies changed ([4]; rat, ip): decrease the delta, theta and alpha2 EEG frequencies
- EEG power spectrum changes, dose dependence ([4]; single ip injection, range 100 to 1000 mg/kg, freely-moving rats): clear, dose-dependent changes in the EEG power spectrum

Compound: N[C@@H](Cc1ccc(O)c(O)c1)C(=O)O [L-DOPA]
- EEG frequency changes of drugs enhancing dopaminergic function [1]: decrease delta, theta and alpha2 frequencies
